{"source": "patent US20050075393A1", "about": "“Carboxylic acid compound cyclopropane ring” (priority 2000, published 2005)", "test_system": "hippocampal neurotransmission (PS amplitude, dentate granule cells, perforant path stimulation)", "experiment": "Population spike (PS) recording in dentate gyrus of anesthetized mice (LTP-like potentiation of synaptic transmission)", "type": "in vivo", "details": "mouse", "source_text": "For population spike (PS) recording, the head of a mouse was fixed with ear bars under urethane anesthesia (an initial dose of 1.2 g/kg, i.p. followed by supplemental injections of 0.2-0.6 g/kg as needed), and a glass recording electrode was placed in the cell body layer of dentate granule cells (coordinates=2.0-2.5 mm posterior to bregma, 1.0-1.5 mm lateral to the midline, 1.5-2.0 mm ventral to the brain surface). Initial responses were obtained using cathodal stimulation (7.0-9.0 V, 0.1 Hz, 0.1 ms in duration) of the perforant path. After both stimulating and recording electrodes were properly positioned and population spike was obtained, the baseline was allowed to stabilize for 30 min prior to baseline recording. Body temperature was maintained at 37° C. Compound A was dissolved in 50% polyethylene glycol, diluted with water, and injected intraperitoneally (i.p.) at concentrations of 0.1 mg/kg, 1 mg/kg and 10 mg/kg, respectively. After the intraperitoneal administration of Compound A, the PS amplitude was measured every 5 minutes, and the proportion in percentage of the obtained value to the PS amplitude at the time of the start of i.p. administration of Compound A (% of basal PS amplitude) was calculated.", "data": [{"smiles": "CCCCCC1CC1CC1CC1CCCCCCCC(=O)O", "note": "(stereo not drawn) [Compound A, 8-(2-((2-pentylcyclopropan-1-yl)methyl)cyclopropyl)octanoic acid]", "values": [{"measurement": "time after injection at which potentiation of PS amplitude is still evident", "setting": "1 mg/kg i.p.", "value": "≥ 120", "unit": "min"}, {"measurement": "PS amplitude, percent of basal PS amplitude", "setting": "1 mg/kg i.p., urethane anesthesia", "value": "approximately 200%"}, {"measurement": "potentiation of PS amplitude", "setting": "10 mg/kg i.p., compared with 1 mg/kg", "value": "much lesser potentiation"}]}]}
